In patent publication US11332440B2, “4-oxo-alkylated tetramic acid compound, and preparation method thereof” (priority 2017, dated 2022):
Entries after “also recorded” stand apart in the source; their conditions may differ. Where two headings read alike, the source gives them in different places.

What was measured:
[1] = test system: Salmonella typhimurium TA100; assay: Mini Ames experiment, strain TA100; assay type: cell-based; conditions: TA100, regardless of the presence or absence of S9
Description: (§1) Histidine auxotrophic strains of Salmonella typhimurium were cultured in a special medium with quite a low content of histidine. The strains were difficult to divide due to lack of nutrition. If a test compound has mutagenicity, a large number of cells will undergo reverse mutation, synthesizing histidine by themselves and developing into colonies visible to the naked eye. In view of the close relationship between mutagenicity and carcinogenesis of chemicals, this method has been widely used in screening carcinogens. Some chemicals need metabolic activation to induce mutagenicity. Mammalian microsomal enzyme S9 can be added into the test system to eliminate the influence of metabolic activation on generation of mutagenicity.
(§2) […] Mini Ames test with compound 50561

[2] = MTD experiment, dose gradient by gavage; assay type: in vivo; conditions: both sexes, mouse, in vivo, po, CR mice, by gavage, read-out: maximum tolerance (MTD)
Description: (§3) Mice are commonly used rodents to evaluate the toxicity of a test sample and are also an important part of early preclinical safety evaluation. In this experiment, the toxicity of compound 50561 was tested by administering a dose gradient thereof to the mice by gavage and observing its toxicity.
(§4) This experiment was designed such that for each dose centration, 10 mice were tested, including half males and half females. The males each weighed about 18-23 grams, and the females each weighed about 17-21 grams. They were randomly grouped by a simple randomization procedure. All the animals used in the experiment weighed between ±20% of the average body weight of their respective genders. If there are not enough animals in the study to meet the weight range required thereby, notify the responsible person of the project to take reasonable measures. Animals must be adapted to the laboratory for at least three days. During this period, daily cage observation was conducted once a day, and a detailed clinical observation was necessary before the experiment. Any animal with symptoms or physical abnormalities would be reported to the attending veterinarian and responsible person of the project, and excluded whenever possible. Animals suitable for experimentation will be assigned to respective experimental groups according to the random grouping method described above.
(§5) During the experiment, after administration, all animals were observed continuously for 4 hours; from the end of administration till 3 days thereafter, observations were carried out twice each day, one in the morning and the other in the afternoon; and then observation was carried out once a day. Observations included but were not limited to: skin, hair, eyes, ears, nose, mouth, chest, abdomen, external genitals, limbs, and feet. The respiratory and circulatory systems, autonomic effects (such as salivation), and nervous system (such as tremors, convulsions, stress responses, and abnormal behaviors) should be focused on. Complete anatomical examinations would be performed on all animals that had died, were dying, or planned to be euthanized. Animals found dead outside of fixed working hours could be placed in the refrigerator overnight and dissected immediately on the next working day. At the end of the experiment (14th day after administration), all animals requiring autopsy would be euthanized and autopsied.
(§6) External abnormalities in animals, such as palpable masses, should be examined in detail. The skin would be cut along the midline of the abdomen, and any subcutaneous mass would be confirmed in conjunction with the findings in the observations of animal symptoms. […] Diseased organs were removed, weighed, recoded, and kept in a fixative fluid.

[3] = test system: CR mice; assay: MTD experiment, dose gradient by gavage; assay type: in vivo
Description: as §3, §4, §5, §6

[4] = test system: Salmonella typhimurium TA98; assay: Mini Ames experiment, strain TA98; assay type: cell-based; conditions: TA98, regardless of the presence or absence of S9
Description: as §1, §2

For `O=C1C=C(OCc2ccc(F)cc2)[C@H](Cc2ccccc2)N1` [Compound 50561], the “change in the number of colonies / mutagenicity” value [1] was “did not cause more than twice of a change in the number of colonies; also recorded: no obvious mutagenicity”, the MTD at 14 days ([2]; CR) was under 500 mg/kg and the MTD at 14 days [2] was at least 250 mg/kg. For the same compound, the Body weight decreased ([3]; 250 mg/kg by gavage) was “Body weight decreased by about 2 g, which”, the Remarks ([3]; 250 mg/kg by gavage) was “in good condition” and the Body weight decreased ([3]; 500 mg/kg by gavage) was “Body weight decreased by about 2 g;”. For the same compound, the Remarks ([3]; 500 mg/kg by gavage) was “individual activity decreased; and the body”, the Remarks ([3]; 750 mg/kg by gavage) was “No abnormality of organs in dead individuals” and the Remarks ([3]; 1000 mg/kg by gavage) was “No abnormality of organs in dead individuals”. For the same compound, the “change in the number of colonies / mutagenicity” value [4] was “did not cause more than twice of a change in the number of colonies; also recorded: no obvious mutagenicity”.
